These results are taken from patent US7351699B1, “Use of DHEA or precursors or metabolic derivatives thereof as a depigmenting agent” (L'Oreal, priority 1999, dated 2008).

Assay [1] deals with pigmentation marks on the skin (back of one hand). Nature of the assay: Clinical evaluation of pigmentation marks (visual overall score 0 to 7 by an expert). The following applies: gelled oil-in-water emulsion with 1% by weight DHEA, applied morning and evening for four months to the back of one hand, 20 women 55 to 70 years old, score constant on untreated hand, FIG. 1. In kind it is in vivo. As to the method:
(§1) A gelled oil-in-water emulsion, containing 1% by weight of DHEA as sole active agent, was tested on a group of 20 women from 55 to 70 years old. The emulsion was applied morning and evening for four months to the back of one hand.
The marks present on the skin were evaluated before and after treatment by visual observation made by an expert, giving the marks an overall score from 0 to 7 as a function of their number, their size and their intensity (clinical evaluation).

Assay [2] has as its system skin pigmentation (back of one hand). The experiment in a line: Biophysical evaluation by colorimetry (Minolta CR200, parameter b*). In kind it is in vivo. The following applies: gelled oil-in-water emulsion with 1% by weight DHEA, applied morning and evening for four months to the back of one hand; 20 women 55 to 70 years old; decrease greater than on untreated hand; FIG. 2. As to the method: as §1
They were also evaluated by colorimetry, using a Minolta CR200 […] (biophysical evaluation). This apparatus describes the colors in a three-dimensional space, using the system of coordinates L, a* and b* recommended by the International Commission on Illumination, in which L* represents the luminance or clarity of the color ([…]), a* is the separation component between green (negative) and red (positive) and is correlated to the skin erythema, and b* varies from blue (negative) to yellow (positive) and represents the skin pigmentation. This parameter b* was used to evaluate the change in the marks in the course of the treatment. It is the result of the average of six individual measurements taken per zone and per measurement period.

Molecules are shown by their SMILES.

For the molecule `C[C@]12CC[C@H](O)CC1=CC[C@@H]1[C@@H]2CC[C@]2(C)C(=O)CC[C@@H]12` [DHEA, dehydroepiandrosterone], in assay [1], the “overall clinical score of the pigmentation marks” value is on record as “improvement in the overall clinical score”. Further, the “component b of the color of the skin (skin pigmentation)” value in assay [2] is recorded as “decrease in the component b of the color of the skin”.
